According to US20220324958A1, “ANTI-INFLAMMATORY PEPTIDES, PHARMACEUTICAL COMPOSITION CONTAINING SUCH PEPTIDES, AND USES THEREOF” (INSTITUTO BUTANTAN, priority 2019, published 2022):
No end group written: not given here.

Legend:
[1] = test system: neurons obtained from SHSY5Y cells; test: Anti-nociceptive/anti-inflammatory model, neurons stimulated with IL-1β: substance P and β-endorphin in supernatant; format: cell-based
Protocol: ANOVA and Dunnet ** p<0.01, *** p<0.001 compared to IL-1β;
(§1) The differentiation process consists of 6 stages distributed over 7 days. On the first day of the differentiation protocol (day 0), cells were seeded in collagen-coated plates. On days 1, 3, and 4 the culture medium was removed, and the differentiation medium containing 2% fetal bovine serum (FBS) and retinoic acid (RA) 10 μM) was added. On day 5, the medium was removed and the culture was incubated with culture medium and brain-derived neurotrophic factor (BDNF) (50 ng/mL). On day 7 of the differentiation process, differentiated neurons are fully ready for use (Agholme et al., 2010, with some modifications).
(§2) 7×10^3 neurons/well were incubated with 10 μM of morphine (inhibitory response control) or peptides (200 nM and 500 nM) 3 hours before or 3 hours after incubation with IL-1β (10 ng/mL) or glycated collagen (GC) (100 μg/mL) (both positive controls for the release of substance P). After 24 hours of incubation, the cell viability assay and the detection of substance P and β-endorphin in the supernatant were performed. Multiplex with magnetic spheres (MILLIPLEX® MAP Magnetic Bead Panel)
ANOVA and Dunnet ** p<0.01, *** p<0.001 compared to […]

[2] = test system: neurons obtained from SHSY5Y cells; test: Anti-nociceptive/anti-inflammatory model, neurons stimulated with glycated collagen (GC): substance P and β-endorphin in supernatant; format: cell-based; conditions: peptide 200 nM incubated 3 hours after GC (100 μg/mL)
Protocol: ANOVA and Dunnet * p<0.05; ** p<0.01 compared to glycated collagen (GC);
ANOVA and Dunnet * p<0.05 ** p<0.01, *** p<0.001 compared with GC;
as §1, §2
ANOVA and Dunnet * p<0.05; ** p<0.01 compared to GC.
ANOVA and Dunnet * p<0.05 ** p<0.01, *** p<0.001 compared to GC.

[3] = test system: human chondrocytes (NHAC-kn); test: Pro-inflammatory model of chondrocytes treated with IL-1β, cytokine release (Multiplex); format: cell-based; conditions: chondrocytes treated with IL-1β (1 ng/mL)
Protocol: Values were obtained from each analyte in pg/mL from treatment with the peptides in the presence of IL-1β (1 ng/mL). The data are presented as the mean±MSE (* p<0.05 when compared to the control with IL-1β, test t, n=3).
(B) Chondrocytes were pretreated for 1 hour with IL-1β (1 ng/mL) before the addition of peptides (200 nM, 500 nM, and 1.25 μM) and an additional incubation of 24 hours before collecting the supernatants.
The primary human chondrocytes used in this assay were purchased from Lonza: Normal Human Articular Primary chondrocytes (NHAC-Kn, #CC-2550, Lot 8F3336). Chondrocyte cell culture was performed in bottles (Sarstedt T175 and T75). The cells were cultivated in DMEM culture medium (Sigma) supplemented with 10% fetal bovine serum (FBS) (Sigma), incubated in an oven at 37° C. and 5% CO2, and cultures were used in the sixth passage. The culture medium was changed every two days until the culture reached 80% confluence.
The identification and quantitative analysis of the cytokines present in the peptide treatment supernatant were performed using the Luminex xMAP Milliplex MAP Human Cytokine/Chemokine Magnetic Bead Panel Catalog #HCYTOMAG-60K technology, according to the manufacturer's instructions.
Values were obtained from each analyte in pg/mL from treatment with the peptides in the presence of IL-1β (1 ng/mL). The data are presented as the mean±MSE (*p<0.05 when compared to the control with IL-1β, test t, n=3).

[4] = test system: THP-1 cells differentiated into macrophages; test: LPS-induced cytokine production in THP-1-derived macrophages (Multiplex); format: cell-based, human
Protocol: THP-1 cells differentiated into macrophages were induced with LPS (10 ng/mL) and, one hour later, treated with synthetic peptides at a concentration of 200 nM. Dexamethasone (10 μM), an inflammatory inhibitor, was used as a control. After 24 hours, the culture medium was collected to measure the IL-1β (A), IL-6 (B), TNF-α (C), and IL-10 cytokines using a Multiplex kit. * p<0.05 vs. LPS; ** p<0.01 vs. LPS; *** p<0.005 vs. LPS;
THP-1 cells differentiated into macrophages were induced with LPS (10 ng/mL) and, one hour later, treated with L4 or D3 peptide (0.05 μM, 0.2 μM, 1 μM, and 2 μM). After 24 hours, the culture medium was collected and TNF-alpha, IL-6, IL-23, and IL-8 were measured by Multiplex. (A) L4 peptide. (B) D3 peptide;
(§3) Macrophages were obtained from the differentiation of monocytes THP-1. Briefly, 1×10^7 cells were treated in the RPMI medium with 25 nM PMA for 48 hours followed by 24 hours of rest in medium without PMA. Subsequently, the cells were released and plated for the respective treatments.
The kit is based on Luminex® xMAP® technology that allows the simultaneous analysis of various cytokines. The technique is based on marked magnetic fluorescent spheres, known as MagPlex®-C microspheres. These microspheres are covered with capture antibodies specific for IL-6 […], and specifically capture the analyte in the supernatant. Each microsphere was individually identified and the results were analyzed using Luminex® Xponent® 4.2 acquisition software.
THP-1 cells differentiated into macrophages were induced with LPS (10 ng/mL) and, one hour later, treated with synthetic peptides, […] (inflammation inhibitor, 10 μM). After 24 hours, the culture medium was collected and IL-1β (A), IL-6 (B), TNF-α (C), and IL-10 were measured by Multiplex. * p<0.05 vs. LPS; ** p<0.01 vs. LPS; *** p<0.005 vs. LPS.
THP-1 cells differentiated into macrophages were induced with LPS (10 ng/mL) and, one hour after, treated with L4 (0.05 μM, 0.2 μM, 1 μM, and 2 μM). After 24 hours, the culture medium was collected and TNF-α, IL-6, IL-23, and IL-8 were measured by Multiplex. (A) L4 peptide. (B) D3 peptide.

[5] = test system: macrophages derived from THP-1; test: Cell viability (MTT) of macrophages derived from THP-1; format: cell-based, human
Protocol: as §3
The evaluation of metabolically active cells was performed using the colorimetric assay of [3-(4,5-dimethylthiazol-2-yl)-2,5-diphenyl tetrazolium] bromide (MTT, Sigma-Aldrich, St. Louis, USA), as previously reported (Twentyman et al., 1987). After each incubation period, the supernatant was removed and a MTT solution (0.5 mg/mL in phosphate-buffered saline—PBS) was added, and the cells incubated at 37° C. and 5% CO2 for 3 hours (Yang et al., 2012). After this period, the solution was removed and crystals of dark blue formazan were solubilized with 1 mL of dimethyl sulfoxide (DMSO, Merck, Darmstad) for 5 minutes. Quantification of formazan was done using an automatic ELISA microplate reader (SLT, Austria) at 570 nm.

[6] = peptide 200 nM added 3 hours after IL-1β (10 ng/mL)
[7] = LPS 10 ng/mL, peptide 200 nM one hour later, 24 hours, vs group treated only with LPS
[8] = dose-response 0.05, 0.2, 1 and 2 μM, LPS 10 ng/mL, 24 hours

Row | Sequence | production of Substance P [1, 6] | production of β-endorphin [1, 6] | production of substance P induced by IL-1β ([1]; peptide 200 nM added 3 hours before IL-1β (10 ng/mL)) | production of Substance P [2] | production of β-endorphin [2] | anti-inflammatory activity (release of G-CSF, GM-CSF, IL-6, IL-8, MCP-1, TNF-α) [3] | levels of IL-10 (anti-inflammatory cytokine) ([4]; LPS 10 ng/mL, peptide 200 nM one hour later, 24 hours) | levels of IL-1β [4, 7] | levels of IL-6 [4, 7] | levels of TNF-a [4, 7] | best dose regarding IL-6 release [4, 8] [µM] | best dose regarding IL-8 release [4, 8] [µM] | most effective dose concerning IL-23 release [4, 8] [µM] | most effective dose concerning TNF-α release [4, 8] [µM] | production of inflammatory cytokines in response to LPS (dose-dependent) ([4]; dose-response 0.05-2 μM, TNF-α, IL-6, IL-23, IL-8) | viability of macrophages derived from THP-1 [5]
1 | DYWHDGHDLN (Designated peptide based on the motif of a group of proteins called hemoline from lepidoptera acting as an anti-inflammatory molecule.) [D3] | inhibit | induced | significantly inhibited | significantly inhibited | increased | anti-inflammatory activity | reduced | significantly reducing | significantly reducing | significantly reducing | 1 | 1 | 1 | 1 | reduced | –
2 | YAIGYSCKDYK [P4, YAIGYSCKDYK] | – | – | – | – | – | – | – | – | – | – | – | – | – | – | – | no effect
